Experimental data taken from patent US20160311826A1, “SGC STIMULATORS” (IRONWOOD PHARMACEUTICALS, INC., priority 2013, published 2016).

Target: T1, human recombinant soluble guanylate cyclase enzyme α1β1 (h sGC) (Homo sapiens, UniProt Q02108+Q02153)
T1 construct: purchased Enzo Life Sciences ALX-201-177
T1 sequence (Q02108 1-690): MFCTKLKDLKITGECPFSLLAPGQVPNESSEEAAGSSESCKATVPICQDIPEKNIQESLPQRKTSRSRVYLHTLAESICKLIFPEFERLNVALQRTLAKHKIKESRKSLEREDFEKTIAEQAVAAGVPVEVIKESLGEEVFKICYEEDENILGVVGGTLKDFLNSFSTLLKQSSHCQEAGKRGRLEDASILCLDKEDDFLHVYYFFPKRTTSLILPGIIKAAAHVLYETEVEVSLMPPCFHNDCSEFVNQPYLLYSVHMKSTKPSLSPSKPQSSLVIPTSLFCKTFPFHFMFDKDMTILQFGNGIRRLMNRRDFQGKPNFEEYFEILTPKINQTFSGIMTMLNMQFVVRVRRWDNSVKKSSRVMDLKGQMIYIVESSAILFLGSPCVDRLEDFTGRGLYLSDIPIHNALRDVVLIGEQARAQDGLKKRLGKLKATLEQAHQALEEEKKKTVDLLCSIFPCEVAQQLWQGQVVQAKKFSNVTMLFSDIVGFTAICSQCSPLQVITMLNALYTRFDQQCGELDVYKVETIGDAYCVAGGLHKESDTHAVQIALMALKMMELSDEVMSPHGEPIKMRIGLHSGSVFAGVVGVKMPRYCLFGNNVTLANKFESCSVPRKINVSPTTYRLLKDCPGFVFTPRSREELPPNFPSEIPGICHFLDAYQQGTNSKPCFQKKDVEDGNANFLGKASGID
T1 sequence (Q02153 1-619): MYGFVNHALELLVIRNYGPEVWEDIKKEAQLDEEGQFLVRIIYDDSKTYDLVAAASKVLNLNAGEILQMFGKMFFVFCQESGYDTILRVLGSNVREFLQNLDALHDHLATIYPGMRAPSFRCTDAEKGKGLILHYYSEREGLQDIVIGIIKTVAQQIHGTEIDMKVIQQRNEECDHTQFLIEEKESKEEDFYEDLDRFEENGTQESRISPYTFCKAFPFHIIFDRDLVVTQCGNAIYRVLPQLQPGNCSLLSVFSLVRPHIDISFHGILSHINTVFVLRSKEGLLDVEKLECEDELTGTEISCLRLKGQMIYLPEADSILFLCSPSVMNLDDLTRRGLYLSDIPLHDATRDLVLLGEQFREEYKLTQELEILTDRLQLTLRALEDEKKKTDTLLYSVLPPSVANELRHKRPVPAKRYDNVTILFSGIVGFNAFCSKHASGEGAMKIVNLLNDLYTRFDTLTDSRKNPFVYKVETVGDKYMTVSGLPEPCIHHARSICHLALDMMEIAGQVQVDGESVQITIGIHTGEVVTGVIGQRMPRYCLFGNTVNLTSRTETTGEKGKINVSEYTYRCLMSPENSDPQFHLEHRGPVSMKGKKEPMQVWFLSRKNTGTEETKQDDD
Assay: Purified human recombinant sGC α1β1 enzyme assay in the presence of DETA-NONOate (cGMP HTRF)
Assay type: biochemical
Conditions: not given
Protocol: Purified human recombinant soluble guanylate cyclase enzyme α1β1 (h sGC) obtained from Enzo Life Sciences (P/N: ALX-201-177) was used to evaluate the activity of test compounds. The assay reactions contained 0.1 M Tris (pH 8.0), 0.5 mg/mL BSA, 2 mM DTT, 4 mM MgCl2, 30 uM DETA NONOate (Enzo Life Science P/N: ALX-430-014), and 12.5 ng/ml human soluble guanylate cyclase enzyme. […] Guanosine 5′-triphosphate (Sigma-Aldrich P/N: G8877) was added to a final concentration of 300 μM and enzyme reactions were incubated (100 μL, 384-well plate format) at 37° C. for 20 minutes. The controls contained 3% DMSO (low control), or 30 uM of Compound Y (high control). After the 20 minute incubation, the reaction was stopped with the addition of 100 μL of ice cold 20% acetic acid.
cGMP concentrations in all samples were determined using the cGMP HTRF (Cisbio P/N: 62GM2PEC) assay per manufacturer's instructions. A cGMP standard curve was fit using a 4-parameter fit (log(inhibitor) vs. response—variable slope) using GraphPad Prism Software v.6. Samples were diluted appropriately to ensure that values fell within the linear range of the standard curve. The EC50 was interpolated from the curve fit and is defined as the concentration at which the compound elicits 50% of the maximal response of the 30 uM of Compound Y, the high control compound.

SMILES | EC50
CCOC(=O)C1(C)C(=O)Nc2nc(-c3nc(OC)n(Cc4ccccc4F)n3)nc(N)c21 (centres unmarked) [Compound I-30] | 2 to 5 µM
CCOC(=O)C1(C)C(=O)Nc2nc(-c3nn(Cc4ccccc4F)c(=O)n3C)nc(N)c21 (centres unmarked) [Compound I-29] | 2 to 5 µM

Same assay, conditions: 30 uM DETA NONOate; concentration eliciting 50% of high control response (30 uM Compound Y); read-out: sGC_Enz_HTRF_a1b1 EC50 Abs

SMILES | EC50
COc1cc(-c2ncc(F)c(NCC(O)CO)n2)nn1Cc1ccccc1F (centres unmarked) [Compound I-64] | 2 to 5 µM
CCOC(=O)C1(C)C(=O)Nc2nc(-c3cc(OC)n(Cc4ccccc4F)n3)nc(N)c21 (centres unmarked) [Compound I-1, ethyl 4-amino-2-(1-(2-fluorobenzyl)-5-methoxy-1H-pyrazol-3-yl)-5-methyl-6-oxo-6,7-dihydro-5H-pyrrolo[2,3-d]pyrimidine-5-carboxylate] | < 2 µM
COc1cc(-c2ncc(F)c(=O)[nH]2)nn1Cc1ccccc1F [Compound I-5] | > 5 µM
CC1(C(N)=O)C(=O)Nc2nc(-c3cc(O)n(Cc4ccccc4F)n3)nc(N)c21 (centres unmarked) [Compound I-48] | > 5 µM
COc1cc(-c2ncc(F)c(NCCO)n2)nn1Cc1ccccc1F [Compound I-13] | 2 to 5 µM
COc1cc(-c2ncc(F)c(NCc3cc(=O)[nH]o3)n2)nn1Cc1ccccc1F [Compound I-19] | 2 to 5 µM
Cn1c(-c2nc(N)c3c(n2)NC(=O)C3(C)C(N)=O)nn(Cc2ccccc2F)c1=O (centres unmarked) [Compound I-18] | > 5 µM
COc1cc(-c2ncc(F)c(N3CCC[C@H](C)[C@@H]3C(=O)O)n2)nn1Cc1ccccc1F [Compound I-70] | 2 to 5 µM
COc1cc(-c2ncc(F)c(NCC(=O)O)n2)nn1Cc1ccccc1F [Compound I-9] | > 5 µM
CCOC(=O)C1(C)C(=O)Nc2nc(-c3nn(Cc4ccccc4F)c(=O)[nH]3)nc(N)c21 (centres unmarked) [Compound I-21] | > 5 µM
COc1cc(-c2nccc(N)n2)nn1Cc1ccccc1F [Compound I-6] | > 5 µM
Cn1c(-c2nc(N)c3c(n2)NC(=O)C3(C)C(=O)NC2CC2)nn(Cc2ccccc2F)c1=O (centres unmarked) [Compound I-38] | < 2 µM
COc1nc(-c2nc(N)c3c(n2)NC(=O)C3(C)C(=O)NC2CC2)nn1Cc1ccccc1F (centres unmarked) [Compound I-37] | 2 to 5 µM
CC1(C(N)=O)C(=O)Nc2nc(-c3nn(Cc4ccccc4F)c(=O)[nH]3)nc(N)c21 (centres unmarked) [Compound I-10] | > 30 µM
COc1nc(-c2nc(N)c3c(n2)NC(=O)C3(C)C(N)=O)nn1Cc1ccccc1F (centres unmarked) [Compound I-17] | > 5 µM
Fc1cnc(-c2cc(OC(F)F)n(Cc3cccc(F)c3F)n2)nc1 [Compound I-59] | > 5 µM
O=c1[nH]c(-c2cc(OC(F)F)n(Cc3ccccc3F)n2)ncc1F [Compound I-4] | > 5 µM
COc1cc(-c2ncc(F)c(NCC(O)(C(N)=O)C(F)(F)F)n2)nn1Cc1ccccc1F (centres unmarked) [Compound I-20] | < 2 µM

Target: T2, soluble guanylate cyclase (sGC) (Homo sapiens, UniProt Q02108+Q02153)
T2 construct: endogenously expressing soluble guanylate cyclase (sGC); endogenous in cells; host or cells: HEK293
T2 sequence (Q02153 1-619): T1 sequence (Q02153 1-619)
T2 sequence (Q02108 1-690): T1 sequence (Q02108 1-690)
Assay: sGC-HEK-cGMP assay with LC/MS detection
Assay type: cell-based
Conditions: HEK293 cells, 10 μM DETA-NONOate; concentration eliciting 50% of high control response (30 μM Compound Y); read-out: sGC_HEK_LC MS EC50 Abs
Protocol: Human embryonic kidney cells (HEK293), endogenously expressing soluble guanylate cyclase (sGC), were used to evaluate the activity of test compounds. Compounds stimulating the sGC enzyme should cause an increase in the intracellular concentration of cGMP. HEK 293 cells were seeded in Dulbecco's Modification of Eagle's Medium supplemented with fetal bovine serum (10% final) and penicillin (100 U/mL)/streptomycin (100 ug/mL) in a […] at a density of 1.5×10^4 cells/well in a poly-D-lysine coated 384 well flat bottom plate. Cells were incubated overnight at 37° C. in a humidified chamber with 5% CO2. Medium was aspirated and cells were washed with 1× Hank's Buffered Saline Salt Solution […]. Cells were then incubated for 15 minutes at 37° C. with 50 μL of a 0.5 mM 3-isobutyl-1-methylxanthine (IBMX) solution. Test article and Diethylenetriamine NONOate (DETA-NONOate) solutions (x μM concentration for test article solution and 10 μM concentration for DETA-NONOate solution; wherein x is one of the following concentrations);
were then added to the assay mixture and the resulting mixture incubated at 37° C. for 20 minutes. After the 20 minute incubation, the assay mixture was aspirated and 10% acetic acid containing 150 ng/mL+3-cGMP (internal standard for LCMS) (50 μL) was added to the cells. The plate was incubated at 4° C. for 30 minutes in the acetic acid solution to stop the reaction and lyse the cells. The plates were then centrifuged at 1,000g for 3 minutes at 4° C. and the supernatant transferred to a clean reaction plate for LCMS analysis.
cGMP concentrations were determined from each sample using the LCMS conditions below (Table 2) and calculated standard curve. The standard curve was prepared in 10% acetic acid with 150 ng/mL+3cGMP (isotopically labelled cGMP with a weight 3 units higher than wild type) with the following final concentrations of cGMP in ng/mL: 1, 5, 10, 50, 100, 250, 500, 1000, 2000.
Data were normalized to a high control using the following equation: 100*(Sample−Low Control)/(High Control−Low Control), where the low control is the average of 16 samples treated with 1% DMSO, and the high control is the average of 16 samples treated with 30 μM of Compound Y depicted below. Data were fit using a 4-parameter fit (log(agonist) vs. response−variable slope) using GraphPad Prism Software v.5. n=2 for all compounds. The Absolute EC50 was interpolated from the curve fit and is defined as the concentration at which a given compound elicits 50% of the high control response. Compounds failing to elicit a minimum response of 50% are reported as >30 μM. For compounds run in duplicate or n higher than 2, the result herein given is the geometric mean of the several results obtained.
Code definitions for the whole cell HEK assay values, expressed as Absolute EC50 which is defined as the concentration at which a given compound elicits 50% of the high control response (Compound Y). Compounds failing to elicit a minimum response of 50% are reported as *.

SMILES | EC50
CCOC(=O)C1(C)C(=O)Nc2nc(-c3cc(OC)n(Cc4ccccc4F)n3)nc(N)c21 (centres unmarked) [Compound I-1, ethyl 4-amino-2-(1-(2-fluorobenzyl)-5-methoxy-1H-pyrazol-3-yl)-5-methyl-6-oxo-6,7-dihydro-5H-pyrrolo[2,3-d]pyrimidine-5-carboxylate] | < 0.1 µM
COc1cc(-c2ncc(F)c(N3CCS(=O)(=O)CC3)n2)nn1Cc1ccccc1F [Compound I-63] | > 30 µM
CCOC(=O)C1(C)C(=O)Nc2nc(-c3cc(OC(F)F)n(Cc4ccccc4F)n3)nc(N)c21 (centres unmarked) [Compound I-72] | < 0.1 µM
COc1cc(-c2nc(N)c3c(n2)NC(=O)C3(C)C(=O)NC2CC2)nn1Cc1ccccc1F (centres unmarked) [Compound I-44] | < 0.1 µM

Test system: lambs with acute pulmonary hypertension
Assay: not given
Conditions: after inhaling the microparticles; cited from earlier work

SMILES | magnitude and duration of pulmonary vasodilation induced by iNO
Nc1nc(-c2nn(Cc3ccccc3F)c3ncccc23)nc(N)c1N1CCOCC1 [BAY 41-8543] | augmented

Same assay, conditions: inhaled microparticles after ODQ; cited from earlier work

SMILES | pulmonary vasodilation and transpulmonary cGMP release after treatment with ODQ
O=C(O)CCCCN(CCc1ccccc1OCc1ccc(CCc2ccccc2)cc1)Cc1ccc(C(=O)O)cc1 [BAY 58-2667] | greatly enhanced

Same assay, conditions: inhaled microparticles with excipients; awake lambs, U-46619 infusion; cited from earlier work

SMILES | effect on mean arterial pressure | pulmonary vasodilation | transpulmonary cGMP release
O=C(O)CCCCN(CCc1ccccc1OCc1ccc(CCc2ccccc2)cc1)Cc1ccc(C(=O)O)cc1 [BAY 58-2667] | without significant effect on mean arterial pressure | dose dependent pulmonary vasodilation | increased transpulmonary cGMP release
Nc1nc(-c2nn(Cc3ccccc3F)c3ncccc23)nc(N)c1N1CCOCC1 [BAY 41-8543] | without significant effect on mean arterial pressure | dose dependent pulmonary vasodilation | increased transpulmonary cGMP release
Nc1nc(-c2nn(Cc3ccccc3F)c3ncccc23)ncc1C1CC1 [BAY 41-2272] | without significant effect on mean arterial pressure | dose dependent pulmonary vasodilation | increased transpulmonary cGMP release

Same assay, conditions: inhaled microparticles; cited from earlier work

SMILES | systemic arterial oxygenation
O=C(O)CCCCN(CCc1ccccc1OCc1ccc(CCc2ccccc2)cc1)Cc1ccc(C(=O)O)cc1 [BAY 58-2667] | increased systemic arterial oxygenation
Nc1nc(-c2nn(Cc3ccccc3F)c3ncccc23)nc(N)c1N1CCOCC1 [BAY 41-8543] | increased systemic arterial oxygenation

Same assay, conditions: intravenous administration; cited from earlier work

SMILES | effect on pulmonary vasodilator effect of iNO
O=c1onc2cnc3ccccc3n12 [ODQ, 1H-[1,2,4]oxadiazolo[4,3-a]quinoxalin-1-one] | markedly reduced the pulmonary vasodilator effect of iNO
